Assay results: article PMC8333425, “Discovery of a dual Ras and ARF6 inhibitor from a GPCR endocytosis screen” (Nature Communications, 2021)
Several values for one entry are separate records, joined by “and”; a condition that tells them apart may be missing. Equal values may be shown once.

Tested on: Rho
Assay: Rho BRET sensor (PKN-RBD-RlucII / rGFP-CAAX; Gα12/13), AT1R-mediated
Type: cell-based, human
Description: HEK293SL cells were seeded at a density of 7.5 × 10^5 cells per 100-mm dish and 24 h later, transiently transfected as such. For receptor internalization experiments, cells were transfected with 0.12 μg AT1R-RlucII, B2R-RlucII, or β2AR-RlucII and 0.48 μg of either rGFP-CAAX (to assess removal from the PM) or rGFP-FYVE (to assess accumulation in the endosomes). For β-arrestin recruitment assays, cells were transfected with 0.48 μg of receptor-YFP along with 0.12 μg of β-arrestin-RlucII. For β-arrestin/AP-2 binding experiments, cells were transfected with 1 μg Flag-AT1R, 1 μg β2-Adaptin-YFP, and 0.12 μg β-arrestin2-RlucII. For G protein activation, cells were transfected with 3 μg of sp-Flag-AT1R along with either 4.5 μg of the Gαq-polycistronic BRET sensor or 0.24 μg of the Gαi3-RlucII and 0.6 μg of GFP10-Gγ2 and Gβ1 sensors or 0.12 μg PKN-RBD-RlucII and 0.48 μg of rGFP-CAAX. For PKC activation, cells were transfected with 3 μg of sp-Flag-AT1R and 0.18 μg of the PKC sensor. For GTPase activation experiments, cells were transfected with 1 μg Flag-AT1R, 0.48 μg of rGFP-CAAX, and either 0.12 μg of GGA3-PBD-RlucII, PAK-CRIB-RlucII or Raf-RBD-RlucII. For biosensor validation experiments, cells were additionally transfected with 500 ng Flag-K-Ras-WT, Flag-K-Ras-G12V, Flag-K-Ras-SOS-CAAX, HA-ARF6-WT, HA-ARF6-T27N, Myc-Rac1-WT, Myc-Rac1-Q61L or Myc-Rac1-T17N. For PI3K/Akt activation experiments, cells were transfected with 0.48 μg of rGFP-CAAX and 0.12 μg of Akt (PH)-RlucII. After 18 h of transfection, the media was replaced and cells were divided for subsequent experiments. Cells were detached and seeded onto poly-L-ornithine-coated 96-well flat white bottom plates (BrandTech Scientific) at a density of 2.5 × 10^4 cells per well in media. The next day, cells were washed once with Tyrode’s buffer (140 mM NaCl, 2.7 mM KCl, 1 mM CaCl2, 12 mM NaHCO3, 5.6 mM D-glucose, 0.5 mM MgCl2, 0.37 mM NaH2PO4, 25 mM HEPES, pH 7.4) and left in Tyrode’s buffer. For kinetics of β-arrestin recruitment or β-arrestin binding to receptor and AP-2 experiments, cells were serum starved for 30 min, pretreated with 21 (50 µM) or Barbadin (100 µM) for 30 min, stimulated with 100 nM AngII or 1 µM BK and BRET signals were monitored at indicated times using a Victor X Light plate reader (PerkinElmer). Coelenterazine H (final concentration of 5 µM) was added 3–5 min prior to BRET measurements. Filter set was 460/80 nm and 535/30 nm for detecting the RlucII Renilla luciferase (donor) and YFP (acceptor) light emissions, respectively. The BRET ratio was determined by calculating the ratio of the light emitted by YFP over the light emitted by the RlucII. For G protein activation, cells were serum starved, pretreated with compounds for 30 min, stimulated with 100 nM AngII for 2 min (Gαq, Gαi3, and Rho sensors) or 5 min (PKC sensor). For the kinetics of GTPase and PI3K/Akt activation, cells were serum starved, pretreated with 21 (50 µM) or Wortmannin (200 nM) for 30 min, stimulated with ligand (100 nM AngII or 100 ng/ml EGF) and BRET signals were monitored at indicated times. For concentration-response curves, cells were serum-starved, pretreated with various concentrations of compounds for 30 min and stimulated with ligand (100 nM AngII, 1 µM BK, 10 µM Isoproterenol (Iso) or 100 ng/ml EGF) in Tyrode’s buffer for 30 min for receptor internalization, 10 min for ARF6, 2 min for Rac and Rho activation and 5 min for Ras activation and PI3K/Akt activation. BRET signals were monitored using a Synergy2 (BioTek) microplate reader and coelenterazine 400a (final concentrations of 5 µM) added 3–5 min prior to BRET measurements. Filter set was 410/80 nm and 515/30 nm for detecting the RlucII Renilla luciferase (donor) and rGFP/GFP10 (acceptor) light emissions, respectively. The BRET ratio was determined by calculating the ratio of the light emitted by rGFP/GFP10 over the light emitted by the RlucII.

Which results are given for `CC(C)C(=O)N1CCN(c2ccc(NC(=O)c3cc4ccccc4o3)cc2Cl)CC1` [Compound 21]?
Gα12/13 engagement by AT1R (BRET sensor) (50 μM): lack of inhibitory effects; Rho MEAN (Fig.4d) (Log [Comp 21] (M) -4): 111.903; Rho MEAN (Fig.4d) (Log [Comp21] (M) -4.3): 104.855; Rho MEAN (Fig.4d) (Log [Comp21] (M) -5): 98.5192; Rho MEAN (Fig.4d) (Log [Comp21] (M) -5.3): 89.4095; Rho MEAN (Fig.4d) (Log [Comp 21] (M) -6): 96.851; Rho MEAN (Fig.4d) (Log [Comp21] (M) -6.3): 103.786; Rho MEAN (Fig.4d) (Log [Comp 21] (M) -7): 100.394; Rho BRET sensor signal (S_Fig.4b), single experiments (listed as Comp 21): 0.2652 and 0.266 and 0.2953; AT1R-mediated activation of a Rho BRET sensor (up to 100 µM of 21): did not inhibit
